Data on 1 molecule can be found in ChEMBL document CHEMBL4422680, “Synthesis, biological evaluation, and molecular docking study of novel allyl-retrochalcones as a new class of protein tyrosine phosphatase 1B inhibitors” (Bioorg Med Chem, 2019).

pIC50: −log10 of the molar value. The source made the active and inactive calls. No cut-off for these calls is given here.

A word on the Cmax: it is the peak of the concentration-time curve. A word on the AUC(0-t): it is the area under the concentration-time curve up to a stated or last time point. Higher therefore signals more exposure. The term AUC denotes concentration integrated over time. Read a low AUC as low exposure. One may read the Tmax as the time from dosing to the highest level. One may read the AUC(0-inf) as total exposure, with the tail of the curve extrapolated. Low values mean less exposure, high ones more exposure. A word on the pIC50: it is the IC50 on a negative log10 scale, so that one unit is a factor of ten.

Series [1] in a line: Cmax in Sprague-Dawley rat at 20 mg/kg, ig administered as single dose by UPLC/MS/MS analysis. In kind it is ADME, organism-based. On the set-up: dose 20 mg/kg, route […]. The conditions noted are these: in vivo, po.
Series [2] deals with T1, Tyrosine-protein phosphatase non-receptor type 1 (Homo sapiens) (UniProt P18031).
T1 sequence (whole entry): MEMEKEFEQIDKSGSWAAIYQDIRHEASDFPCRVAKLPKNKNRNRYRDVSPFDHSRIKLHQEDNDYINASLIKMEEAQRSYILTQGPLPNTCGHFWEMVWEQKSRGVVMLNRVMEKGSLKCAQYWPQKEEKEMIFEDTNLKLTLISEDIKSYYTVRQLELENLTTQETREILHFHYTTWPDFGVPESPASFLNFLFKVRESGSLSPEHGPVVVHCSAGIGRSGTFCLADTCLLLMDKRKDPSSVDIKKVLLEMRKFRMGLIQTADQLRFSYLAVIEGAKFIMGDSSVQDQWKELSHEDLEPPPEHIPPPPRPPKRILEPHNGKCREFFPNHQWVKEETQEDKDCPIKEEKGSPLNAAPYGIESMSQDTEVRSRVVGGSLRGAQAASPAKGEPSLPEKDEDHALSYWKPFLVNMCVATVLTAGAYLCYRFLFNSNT
As to the kind of experiment: Potency index, ratio of […] IC50 to test compound IC50 for recombinant human PTP1B.

A short description of series [3]: Drug uptake in Sprague-Dawley rat at 20 mg/kg, ig administered as single dose measured after 4 hrs by UPLC/MS/MS analysis. In kind it is ADME, organism-based. The conditions noted are these: in vivo, po.
Series [4] can be described thus: AUC (0 to t) in Sprague-Dawley rat at 20 mg/kg, ig administered as single dose by UPLC/MS/MS analysis. The series is classed as ADME, organism-based. The conditions noted are these: in vivo, po.
For series [5], the system named is Mus musculus. Description: Protection against hyperglycemia-induced liver injury in db/db mouse assessed as reduction in size and number of liver lipid droplets at 10 to 20 mg/kg, po administered every other day for 10 weeks measured post last dose by hematoxylin and eosin staining based light microscopic analysis. In kind it is functional, organism-based.
The nature of series [6]: AUC (0 to infinity) in Sprague-Dawley rat at 20 mg/kg, ig administered as single dose by UPLC/MS/MS analysis. In kind it is ADME, organism-based. On the set-up: dose 20 mg/kg, time infinity, route […]. The conditions noted are these: in vivo, po.
Series [7] in a line: AUC (0 to t) in Sprague-Dawley rat at 2 mg/kg, iv administered as single dose by UPLC/MS/MS analysis. The conditions noted are these: in vivo. The series is classed as ADME, organism-based.
Series [8] is described as follows: Tmax in Sprague-Dawley rat at 20 mg/kg, ig administered as single dose by UPLC/MS/MS analysis. In kind it is ADME, organism-based. The conditions noted are these: in vivo, po.
In series [9] the test system is Mus musculus. Description: Protection against hyperglycemia-induced liver injury in db/db mouse assessed as increase in IRS1 phosphorylation in liver at 10 to 20 mg/kg, po administered every other day for 10 weeks measured post last dose by immunoblotting analysis. In kind it is functional, organism-based. On the technique in general: In western blotting, separated proteins are transferred to a membrane and probed.

Series [10] has as its system Mus musculus. Description: Protection against hyperglycemia-induced liver injury in db/db mouse assessed as reduction in serum ALT level at 10 to 20 mg/kg, po administered every other day for 10 weeks measured post last dose. The series is classed as functional, organism-based.
Series [11] can be described thus: Apparent half-life of the terminal disposition phase in Sprague-Dawley rat at 20 mg/kg, ig administered as single dose by UPLC/MS/MS analysis. The series is classed as ADME, organism-based. The conditions noted are these: in vivo, po, read-out: t1/2 lambda z (converted).
The test system of series [12] is Mus musculus. Description: Protection against hyperglycemia-induced liver injury in db/db mouse assessed as reduction in serum total cholesterol level at 10 to 20 mg/kg, po administered every other day for 10 weeks measured post last dose. The series is classed as functional, organism-based.
Series [13] is described as follows: Apparent half-life of the terminal disposition phase in Sprague-Dawley rat at 2 mg/kg, iv administered as single dose by UPLC/MS/MS analysis. In kind it is ADME, organism-based. The conditions noted are these: in vivo, read-out: t1/2 lambda z (converted).
Series [14] addresses T1, Tyrosine-protein phosphatase non-receptor type 1 (Homo sapiens). Description: Inhibition of PTP1B in human HepG2 cells assessed as suppression of PA-induced insulin resistance by measuring increase in IRS1 phosphorylation at 5 uM preincubated for 1 hr followed by PA-stimulation for 24 hrs and subsequent insulin measured by immunoblotting analysis. The series is classed as cell-based.

The subject of series [15] is Mus musculus. Description: Protection against hyperglycemia-induced liver injury in db/db mouse assessed as reduction in serum AKP level at 10 to 20 mg/kg, po administered every other day for 10 weeks measured post last dose. In kind it is functional, organism-based.
Series [16] in a line: Tmax in Sprague-Dawley rat at 2 mg/kg, iv administered as single dose by UPLC/MS/MS analysis. In kind it is ADME, organism-based. The conditions noted are these: in vivo.
In series [17] the test system is Mus musculus. As to the kind of experiment: Protection against hyperglycemia-induced liver injury in db/db mouse assessed as reduction in steatosis at 10 to 20 mg/kg, po administered every other day for 10 weeks measured post last dose by hematoxylin and eosin staining based light microscopic analysis. In kind it is functional, organism-based.
Series [18] is described as follows: AUC (0 to infinity) in Sprague-Dawley rat at 2 mg/kg, iv administered as single dose by UPLC/MS/MS analysis. The series is classed as ADME, organism-based. On the set-up: dose 2 mg/kg, route intravenous, time infinity. The conditions noted are these: in vivo.
A short description of series [19]: Cmax in Sprague-Dawley rat at 2 mg/kg, iv administered as single dose by UPLC/MS/MS analysis. The conditions noted are these: in vivo. The series is classed as ADME, organism-based. On the set-up: dose 2 mg/kg, route intravenous.
Series [20] deals with T1, Tyrosine-protein phosphatase non-receptor type 1 (Homo sapiens). Description: Inhibition of PTP1B in human HepG2 cells assessed as suppression of PA-induced insulin resistance by measuring increase in AKT phosphorylation at 10 uM preincubated for 1 hr followed by PA-stimulation for 24 hrs and subsequent insulin measured by immunoblotting analysis. In kind it is cell-based.

Series [21] concerns the target T2, Tyrosine-protein phosphatase non-receptor type 1 (Homo sapiens, UniProt P18031).
T2 sequence (P18031 whole entry): T1 sequence (whole entry)
As to the kind of experiment: (§1) Inhibition of recombinant human PTP1B using pNPP as substrate measured after 30 mins. The conditions noted are these: read-out: IC50.

Series [22] concerns the target T1, Tyrosine-protein phosphatase non-receptor type 1 (Homo sapiens). The description is as §1.

As to `C=CCc1cc(/C=C/C(=O)c2cccc(N(C)C)c2)c(OC)cc1O`, the Cmax in [1] came out at 46.2 ng/mL; in series [19], 2150 ng/mL. In addition, in series [2], the Ratio IC50 was found to be 6. The Drug uptake result in [3] was “Active”. Also, the AUC(0-t) was found to be 584 ng·h/mL in series [4] and 1430 ng·h/mL in series [7]. Also, the result in the series with Mus musculus [5], in the series on Mus musculus [9], with Mus musculus [10], with Mus musculus [12], in the series with Mus musculus [15] and in the series on Mus musculus [17] was Active. For the same molecule, the AUC in [6] was determined as 605.52 ng·h/mL. In addition, the results for the Tmax in series [8] and in series [16] were 14 h and 4.8 min, respectively. The half-life in [11] was 8.85 h; in series [13] it was 21.1 h. Further, the inhibition entry in [14] and in [20] was “Active” in each case. The AUC(0-inf) in series [18] turned out to be 1620 ng·h/mL. In addition, in [21], the pIC50 is 6.24. Further, the inhibition result in series [22] is “Dose-dependent effect”.
